Tested on: avocados
Experiment: Mass loss rates of avocados coated with compounds extracted by thermal depolymerization of cutin
Set-up: species or system avocado
Details: unpeeled avocados dipped in 10 mg/mL solution in ethanol, humidity about 40%-55%
Protocol: Protective coatings were formed over avocados by extracting compounds by method described herein (thermal depolymerization of cutin) and depositing the compounds over the outer surface of the (unpeeled) avocados. The mass loss rates of the avocados were then measured and compared to those of uncoated avocados. All coatings were formed by dipping the avocados in a solution comprising the associated compounds dissolved in substantially pure ethanol at a concentration of 10 mg/mL, placing the avocados on drying racks, and allowing the avocados to dry under ambient room conditions at a temperature in the range of about 23° C.-27° C. and humidity in the range of about 40%-55%. The avocados were held at these same temperature and humidity conditions for the entire duration of the time they were tested.
Mass loss rates are shown in FIG. 16 for untreated (e.g., uncoated) avocados in bar 1602, for avocados coated with ethyl 10,16-dihydroxyhexadecanoate (referred to as “EtDHPA”) in bar 1604, and for avocados coated with a mixture of EtDHPA and 1,3-dihydroxypropan-2-yl hexadecanoate (referred to as “PA-2G”) in bar 1606, where for bar 1606 the EtDHPA and PA-2G were mixed at a mass ratio of 30:70. […]

## CCOC(=O)CCCCCCCCC(O)CCCCCCO (centres unmarked) [EtDHPA, ethyl 10,16-dihydroxyhexadecanoate]
dried, held at about 23-27 °C, group of 30 avocados, FIG. 16
  average rate of mass decrease of coated avocados (mass loss rate): about 1.06 % per day
About 23-27 °C, uncoated avocados about 1.21% per day
  reduction of average mass loss rate as compared to the uncoated avocados: more than 12%

— patent US11767278B2, “Plant extract compositions for forming protective coatings” (Apeel Technology, Inc., priority 2015, dated 2023)
